The record followed here is patent US10865203B2, “Ligands selective to alpha 6 subunit-containing GABAA receptors and their methods of use” (UWM Research Foundation, Inc., priority 2015, dated 2020).

A short description of data set [1]: Microsomal stability assay, mouse liver microsomes. Particulars: 10 μM test compound, 0.5 mg/mL protein, 37° C. In kind it is in vitro ADME. On the procedure: (§1) 4 μL of 1 mM test compound at a final concentration of 10 μM dissolved in DMSO/ACN/Methanol/Ethanol was preincubated at 37° C. for 5 minutes on a digital heating shaking dry bath (Fischer scientific, Pittsburgh, Pa.) in a mixture containing 282 μL of water, 80 μL of phosphate buffer (0.5 M, pH 7.4), 20 μL of NADPH Regenerating System Solution A (BD Bioscience, San Jose, Calif.) and 4 μL of NADPH Regenerating System Solution B (BD Bioscience, San Jose, Calif.) in a total volume of 391.2 μL. Following preincubation, the reaction was initiated by addition of 8.8 μL of either human liver microsomes (BD Gentest, San Jose, Calif.), mouse liver microsomes (Life technologies, Rockford, Ill.), at a protein concentration of 0.5 mg/mL. Aliquots of 50 μL were taken at time intervals of 0 (without microsomes), 10, 20, 30, 40, 50 and 60 minutes. Each aliquot was added to 100 μL of cold acetonitrile solution containing 1 μM/2 μM internal standard. This was followed by sonication for 10 seconds and centrifugation at 10,000 rpm for 5 minutes. 100 μL of the supernatant was transferred into Spin-X HPLC filter tubes (Corning Incorporated, NY) and centrifuged at 13,000 rpm for 5 minutes. […] The ratio of the peak areas of the internal standard and test compound was calculated for every time point and the natural log of the ratio were plotted against time to determine the linear slope (k). […] All experiments were repeated three times in duplicates.
For orientation: Liver microsomes are vesicles of endoplasmic reticulum, rich in cytochrome P450 enzymes.

Data set [2] can be described thus: Microsomal stability assay, human liver microsomes. In kind it is in vitro ADME. The note with it: 10 μM test compound, 0.5 mg/mL protein, 37° C. How it is done: as §1
The subject of data set [3] is METH-impaired PPI in C57/B6 mice. Nature of the data set: PPI test, methamphetamine-impaired prepulse inhibition. The note with it: for rescue of METH-impaired PPI: mice, compound 10 mg/kg i.p. 15 min before METH 2 mg/kg i.p. In kind it is in vivo, mouse. On the procedure:
All animal experiments conducted at NTU were approved by the Institutional Animal Care and Use Committee of College of Medicine, National Taiwan University. C57/B6 (8-10 weeks) mice were used for the PPI test and Wistar rats (8-9 weeks) were used in the migraine model. Animals were housed in an animal room with a 12-h light/12-h dark cycle and free access to food and water.
The PPI test was conducted with a PPI apparatus (SR-LAB, San Diego Instruments, San Diego, Calif.) consisting of a startle chamber equipped with various programming acoustic stimulations. After acclimation, the mouse was gently placed in the startle chamber for a 4 min acclimation period with a background noise of 65 dB, which continued throughout the whole PPI test session. One PPI test session consisted of 4 types of startle trials, including the trial with the startle pulse (115 dB) alone (PULSEALONE; 115 dB, 20 ms), two trials with the startle pulse paired with 71 and 77 dB prepulses, respectively (PREPULSE+PULSE; 71 dB+115 dB and 77 dB+115 dB), and the trial without stimulus (NOSTIM; background 65 dB only). A test session started and ended, respectively, with four NOSTIM trials and four PULSEALONE trials. In between, each of the four types of trials was presented 14 times randomly, that is, 56 trials were given in a test session. The intertrial interval was given randomly from 5 to 20 s. In the PREPULSE+PULSE trial, a 71 or 77 dB prepulse was given 120 ms before the 115 dBpulse. The magnitude of PPI (PPI %) was determined, after summarizing the startle responses in PULSEALONE and PREPULSE+PULSE trials, according to the equation (PULSEALON−PREPULSE+PULSE)/PULSEALONE×100%. The tested compound or vehicle was given to the animal for 15 min, followed by methamphetamine (2 mg/kg). The PPI test was conducted 10 min after injection of methamphetamine. Data were expressed as the mean±S.E.M. Statistical comparisons among groups were analyzed by ANOVA with Tukey post hoc test, and differences between groups were analyzed by Student's t-test. Two-way ANOVA with Bonferroni's post hoc test was used to analyze differences in the time courses of locomotor activity among groups. Differences were considered significant if P<0.05.
Methamphetamine and apomorphine were dissolved in normal saline for i.p. And s.c. Injections, respectively. Tested compounds and haloperidol, when given by i.p. Injection, were dissolved in a vehicle containing 20% dmso, 20% Cremophor® el (polyoxyethylene castor, sigma-aldrich) and 60% normal saline. Furosemide was dissolved (20 nmole/μL) in dimethylsulfoxide for intra-cerebellar microinjection the i.p. or s.c. Injection volume was 10 mL/kg.

The next data set addresses T1, α6β3γ2 receptor (Rattus norvegicus, UniProt P30191+P63079).
T1 construct: expressed in transfected cells; host or cells: Xenopus laevis oocytes injected with subunit mRNA (3:1:5)
Nature of the data set: Electrophysiology in Xenopus oocytes, modulation of GABA currents. In kind it is cell-based. Particulars: modulation of GABA EC3 currents. How it is done:
Mature female Xenopus laevis (Nasco, Fort Atkinson, Wis., USA) were anaesthetized in a bath of ice-cold 0.17% Tricain (Ethyl-m-aminobenzoat, Sigma-Aldrich, St. Louis, Mo., USA) before decapitation and transfer of the frog's ovary to ND96 medium (96 mM NaCl, 2 mM KCl, 1 mM MgCl2, 5 mM HEPES; pH 7.5). Following incubation in 1 mg/mL collagenase (Sigma-Aldrich, St. Louis, Mo., USA) for 30 min, stage 5 to 6 oocytes were singled out of the ovary and defolliculated using a platinum wire loop. Oocytes were stored and incubated at 18° C. in NDE medium (96 mM NaCl, 2 mM KCl, 1 mM MgCl2, 5 mM HEPES, 1.8 mM CaCl2; pH 7.5) that was supplemented with 100 U per mL-1 penicillin, 100 μg per mL-1 streptomycin and 2.5 mM pyruvate. Oocytes were injected with an aqueous solution of mRNA. A total of 2.5 ng of mRNA per oocyte was injected. Subunit ratio was 1:1:5 for αxβγ2 (x=1, 2, 3, 5) and 3:1:5 for α4/6β3γ2 and αβδ receptors. Injected oocytes were incubated for at least 36 h before electrophysiological recordings. Oocytes were placed on a nylon-grid in a bath of NDE medium. For current measurements, the oocytes were impaled with two microelectrodes (2-3MΩ), which were filled with 2 M KCl. The oocytes were constantly washed by a flow of 6 mL per min-1 NDE that could be switched to NDE containing GABA and/or drugs. Drugs were diluted into NDE from DMSO solutions resulting in a final concentration of 0.1% DMSO. […] To test for modulation of GABA induced currents by compounds, a GABA concentration that was titrated to trigger 3-5% of the respective maximum GABA-elicited current of the individual oocyte (EC3-5) was applied to the cell together with various concentrations of tested compounds. All recordings were performed at room temperature at a holding potential of −60 mV using a Warner OC-725C TEV (Warner Instrument, Hamden, Conn., USA) or a Dagan CA-1B Oocyte Clamp or a Dagan TEV-200A TEV (Dagan Corporation, Mineapolis, Minn., USA). Data were digitized using a Digidata 1322A or 1550 data acquisition system (Axon Instruments, Union City, Calif., USA), recorded using Clampex 10.5 software (Molecular Devices, Sunnyvale, Calif., USA), and analyzed using Clampfit 10.5 and GraphPad Prism 6.0 (La Jolla, Calif., USA) software. Concentration-response data were fitted using the Hill equation. Data are given as mean±SEM from at least three oocytes of two batches.
For selected test compounds full dose response curves were recorded in α1-6β3γ2 receptors. For selected compounds, dose response curves in additional receptor subtypes (α1, 4, 6β3δ, α6β1, 2γ2, α1-6β3) were also obtained. For a wider panel of compounds, a two point screening pharmacology was obtained at 1 and 10 μM compound concentrations.

Each structure is given as a SMILES string. Entries after “also recorded” stand apart in the source; their conditions may differ.

In general, half-life refers to the time needed for the level to fall by half in the phase considered.

T1 sequence (P30191 20-453): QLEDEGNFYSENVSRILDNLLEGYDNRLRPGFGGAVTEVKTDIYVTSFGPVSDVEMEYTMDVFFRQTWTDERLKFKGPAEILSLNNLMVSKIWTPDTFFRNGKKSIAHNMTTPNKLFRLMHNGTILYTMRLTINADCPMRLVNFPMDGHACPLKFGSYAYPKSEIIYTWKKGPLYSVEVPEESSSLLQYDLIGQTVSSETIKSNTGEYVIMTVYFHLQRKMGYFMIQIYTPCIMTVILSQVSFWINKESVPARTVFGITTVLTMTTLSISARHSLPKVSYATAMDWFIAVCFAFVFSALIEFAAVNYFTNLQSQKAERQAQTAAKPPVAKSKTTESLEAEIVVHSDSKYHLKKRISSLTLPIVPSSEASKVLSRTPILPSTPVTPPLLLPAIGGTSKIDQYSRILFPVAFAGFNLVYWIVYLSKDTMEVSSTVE
T1 sequence (P63079 26-473): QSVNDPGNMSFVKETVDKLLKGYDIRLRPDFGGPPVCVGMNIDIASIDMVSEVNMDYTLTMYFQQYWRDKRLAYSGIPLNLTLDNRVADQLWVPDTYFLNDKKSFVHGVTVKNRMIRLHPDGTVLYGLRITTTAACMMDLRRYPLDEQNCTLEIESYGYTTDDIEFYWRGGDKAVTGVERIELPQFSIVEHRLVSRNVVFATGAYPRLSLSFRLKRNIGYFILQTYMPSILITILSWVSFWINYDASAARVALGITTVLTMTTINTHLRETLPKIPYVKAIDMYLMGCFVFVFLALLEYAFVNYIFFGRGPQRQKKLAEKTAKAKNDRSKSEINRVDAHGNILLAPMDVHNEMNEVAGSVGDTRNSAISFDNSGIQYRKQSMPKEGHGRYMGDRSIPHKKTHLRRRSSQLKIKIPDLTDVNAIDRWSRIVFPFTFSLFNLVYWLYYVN
T1 sequence (P18508 39-466 partner): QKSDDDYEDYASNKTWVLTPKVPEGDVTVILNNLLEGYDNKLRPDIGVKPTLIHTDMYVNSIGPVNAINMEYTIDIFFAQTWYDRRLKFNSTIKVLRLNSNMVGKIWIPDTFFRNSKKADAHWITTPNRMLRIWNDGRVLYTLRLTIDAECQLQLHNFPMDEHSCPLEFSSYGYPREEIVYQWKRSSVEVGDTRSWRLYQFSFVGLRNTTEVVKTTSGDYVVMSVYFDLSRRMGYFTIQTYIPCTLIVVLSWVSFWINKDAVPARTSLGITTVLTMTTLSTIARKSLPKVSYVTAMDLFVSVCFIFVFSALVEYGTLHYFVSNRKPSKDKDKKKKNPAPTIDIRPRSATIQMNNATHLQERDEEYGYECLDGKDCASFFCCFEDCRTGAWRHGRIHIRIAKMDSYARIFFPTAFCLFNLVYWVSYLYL

As to `[2H]C([2H])([2H])Oc1ccc(-n2nc3c4ccc(Br)cc4[nH]cc-3c2=O)cn1` [DK-II-58-1, 7-Bromo-2-(6-methoxy-d3-pyridin-3-yl)-2,5-dihydro-3H-pyrazolo[4,3-c]quinolin-3-one], in data set [1], the “% left after 1 hr. (MLM)” value is on record as 98.39 ± 0.06% and the “Half-life (min) (MLM)” value is reported as 4250 ± 0.001 min. Moreover, in data set [2], the “% left after 1 hr. (HLM)” value was 97.8 ± 0.06% and the “Half-life (min) (HLM)” value turned out to be 2341 ± 0.001 min.
For `COc1ccc2c3nn(-c4ccc(OC)nc4)c(=O)c-3c[nH]c2c1` [DK-II-13-1, 7-Methoxy-2-(6-methoxypyridin-3-yl)-2,5-dihydro-3H-pyrazolo[4,3-c]quinolin-3-one], in data set [1], the “% left after 1 hr. (MLM)” value worked out at 74.77 ± 0.12% and the “Half-life (min) (MLM)” value is 139.2 ± 5.8 min. Also, in data set [2], the “% left after 1 hr. (HLM)” value is 93 ± 0.14% and the “Half-life (min) (HLM)” value is given as 794 ± 182 min.
`COc1ccc(-n2nc3c4cc(Cl)ccc4[nH]cc-3c2=O)cn1` [DK-II-18-1, 8-Chloro-2-(6-methoxypyridin-3-yl)-2,5-dihydro-3H-pyrazolo[4,3-c]quinolin-3-one]: in data set [1], the “% left after 1 hr. (MLM)” value amounted to 85.6 ± 0.12% and the “Half-life (min) (MLM)” value is given as 265 ± 17 min. In data set [2], the “% left after 1 hr. (HLM)” value is 91.6 ± 0.10% and the “Half-life (min) (HLM)” value came to 511 ± 44 min.
As for `[2H]C([2H])([2H])Oc1ccc(-n2nc3c4cc(Cl)ccc4[nH]cc-3c2=O)cc1` [DK-I-93-1, 8-Chloro-2-(4-methoxy-d3-phenyl)-2,5-dihydro-3H-pyrazolo[4,3-c]quinolin-3-one], in data set [1], the “% left after 1 hr. (MLM)” value stood at 85.53 ± 0.07% and the “Half-life (min) (MLM)” value was determined as 263 ± 5.96 min. Further, in data set [2], the “% left after 1 hr. (HLM)” value came to 92.2 ± 0.15% and the “Half-life (min) (HLM)” value is listed as 640 ± 126 min.
Regarding `COc1ccc(-n2nc3c4cc(Cl)ccc4[nH]cc-3c2=O)cc1` [Compound 11, 8-Chloro-2-(4-methoxyphenyl)-2,5-dihydro-3H-pyrazolo[4,3-c]quinolin-3-one], in data set [1], the “% left after 1 hr. (MLM)” value was 69.2 ± 0.15%. Besides, the half-life at 10 μM in data set [1] (mouse, liver microsomes, pH 7.4, read-out: Half-life (min) (MLM)) amounted to 116 ± 5.2 min; in data set [2] (human, liver microsomes, pH 7.4, read-out: Half-life (min) (HLM)) it was 135 ± 5 min. Further, the “effect of intra-cerebellar furosemide on the rescue of PPI” value in data set [3] (furosemide 10 nmol intra-cerebellar microinjection) is listed as “prevented”. Besides, the “rescue of METH-impaired PPI” value in data set [3] is “effective; also recorded: significantly rescued”; in data set [3] (listed as C11), “significantly rescued”. In data set [2], the “% left after 1 hr. (HLM)” value stood at 72.5 ± 0.11%. Further, at α6β3γ2 receptor, the “selectivity for α6β3γ2 over other αxβ3γ2 receptors” value was “strongly modulates other GABAA receptor subtypes”.
In the case of `[2H]C([2H])([2H])Oc1ccc(-n2nc3c4cc(Cl)ccc4[nH]cc-3c2=O)cn1` [DK-II-59-1, 8-Chloro-2-(6-methoxy-d3-pyridin-3-yl)-2,5-dihydro-3H-pyrazolo[4,3-c]quinolin-3-one], in data set [1], the “% left after 1 hr. (MLM)” value is on record as 85.1 ± 0.10% and the “Half-life (min) (MLM)” value came out at 250.62 ± 13 min. Also, in data set [2], the “% left after 1 hr. (HLM)” value was 93 ± 0.12% and the “Half-life (min) (HLM)” value is 725.8 ± 146 min.
Take `[2H]C([2H])([2H])Oc1ccc(-n2nc3c4ccc(OC)cc4[nH]cc-3c2=O)cn1` [DK-II-60-1, 7-Methoxy-2-(6-methoxy-d3-pyridin-3-yl)-2,5-dihydro-3H-pyrazolo[4,3-c]quinolin-3-one]: in data set [1], the “% left after 1 hr. (MLM)” value is listed as 92.4 ± 0.12% and the “Half-life (min) (MLM)” value amounted to 640 ± 102 min. In data set [2], the “% left after 1 hr. (HLM)” value was determined as 92.5 ± 0.12% and the “Half-life (min) (HLM)” value amounted to 592.5 ± 96 min.
